The results in this text go back to US5945438A, “Triazole derivative and pharmaceutical comprising the same as an effective ingredient” (SS Pharmaceutical Co., Ltd., priority 1995, dated 1999).

Converted amounts (≈) assume the structure as drawn. Where two headings read alike, the source gives them in different places.

In one test the test system is C. albicans ATCC 44859. The experiment in a line: In vitro antifungal activity against Candida albicans. As to conditions: C. albicans controlled to a yeast-type (no hyphal growth), Eagle's MEM medium with 10% serum, 2.0×10^4 cells/ml, 37° C.; for MIC: Candida albicans, read-out: Minimum inhibitory concentration. It counts as cell-based. On the procedure: In vitro antifungal activity against Candida albicans
Incubation was then conducted at 37° C. for 20 hours using a CO2 gas incubator.

The subject of the next test is A. fumigatus IFM 40808. Kind of test: In vitro antifungal activity against Aspergillus fumigatus. It counts as cell-based. Particulars: RPMI MEDIUM 1640, pH 7, 3.0×10^4 cells/ml, 35° C.; for MIC: Aspergillus fumigatus, read-out: Minimum inhibitory concentration. On the procedure:
In vitro antifungal activity against Aspergillus fumigatus
Incubation was then conducted at 35° C. for 24 hours.

The mark [1] stands for this setting: IFM40808, 24 h, pH 7, growth of about 75% of hyphae inhibited.
[2] abbreviates: growth of about 75% of hyphae inhibited, 24 hours.

In the case of `CSC(F)(F)C(O)(Cn1cncn1)c1ccccc1` (stereo not drawn) [Compound(1a-5), 3,3-difluoro-3-methylthio-2-phenyl-1-(1H-1,2,4-triazol-1-yl)propan-2-ol], the MIC with C. albicans ATCC 44859 (ATCC44859, 20 h) stood at 0.125 µg/mL (≈ 0.438 µM); with A. fumigatus IFM 40808 (setting [1]), 16 µg/mL (≈ 56.1 µM).
`CS(=O)(=O)C(F)(F)C(O)(Cn1cncn1)c1ccc(F)cc1F` (single isomer, unassigned; (+)) [(+)-Compound(1c-1), (+)-3,3-difluoro-2-(2',4'-difluorophenyl)-3-methylsulfonyl-1-(1H-1,2,4-triazol-1-yl)propan-2-ol]: the results for the Minimum inhibitory concentration in the test on C. albicans ATCC 44859 (20 hours) and in the test on A. fumigatus IFM 40808 (setting [2]) were over 1000 ng/mL and over 64 µg/mL, respectively.
Take `CS(=O)(=O)C(F)(F)C(O)(Cn1cncn1)c1ccc(F)cc1` (racemic) [Compound(1c-2), 3,3-difluoro-2-(4'-fluorophenyl)-3-methylsulfonyl-1-(1H-1,2,4-triazol-1-yl)propan-2-ol]: the MIC in the test on C. albicans ATCC 44859 (ATCC44859, 20 h) is 0.25 µg/mL (≈ 0.746 µM); in the test on A. fumigatus IFM 40808 (setting [1]), over 64 µg/mL.
For `CSC(F)(F)C(O)(Cn1cncn1)c1ccc(C(F)(F)F)cc1` (stereo not drawn) [Compound(1a-4), 3,3-difluoro-3-methylthio-1-(1H-1,2,4-triazol-1-yl)-2-[4'-(trifluoromethyl)phenyl]propan-2-ol], in that order: 0.0156 µg/mL (≈ 0.0442 µM) and 16 µg/mL (≈ 45.3 µM).
As for `CS(=O)(=O)C(F)(F)C(O)(Cn1cncn1)c1ccc(F)cc1F` (single isomer, unassigned; (-)) [(-)-Compound(1c-1), (-)-3,3-difluoro-2-(2',4'-difluorophenyl)-3-methylsulfonyl-1-(1H-1,2,4-triazol-1-yl)propan-2-ol], the Minimum inhibitory concentration with C. albicans ATCC 44859 (20 hours) worked out at 31.3 ng/mL (≈ 0.0886 µM); in the test with A. fumigatus IFM 40808 (setting [2]), 16 µg/mL (≈ 45.3 µM).
As for `CS(=O)(=O)C(F)(F)C(O)(Cn1cncn1)c1ccc(Cl)cc1Cl` (single isomer, unassigned; (-)) [(-)-Compound(1c-3), (-)-2-(2',4'-dichlorophenyl)-3,3-difluoro-3-methylsulfonyl-1-(1H-1,2,4-triazol-1-yl)propan-2-ol], the Minimum inhibitory concentration with C. albicans ATCC 44859 (20 hours) is 7.8 ng/mL (≈ 0.0202 µM). Further, the MIC in the test with A. fumigatus IFM 40808 (setting [1]) amounted to 32 µg/mL (≈ 82.9 µM).
As for `CS(=O)(=O)C(F)(F)C(O)(Cn1cncn1)c1ccc(F)cc1F` (stereo not drawn) [Compound (1c-1), 3,3-difluoro-2-(2',4'-difluorophenyl)-3-methylsulfonyl-1-(1H-1,2,4-triazol-1-yl)propan-2-ol], the MIC in the test on C. albicans ATCC 44859 (ATCC44859, 20 h) came to 0.0625 µg/mL (≈ 0.177 µM); in the test with A. fumigatus IFM 40808 (setting [1]), 32 µg/mL (≈ 90.6 µM).
For `CSC(F)(F)C(O)(Cn1cncn1)c1ccc(F)cc1F` (racemic) [Compound(1a-1), 3,3-difluoro-2-(2',4'-difluorophenyl)-3-methylthio-1-(1H-1,2,4-triazol-1-yl)propan-2-ol], in that order: 0.0078 µg/mL (≈ 0.0243 µM) and 4 µg/mL (≈ 12.4 µM).
The matching figures for `CS(=O)(=O)C(F)(F)C(O)(Cn1cncn1)c1ccccc1` (stereo not drawn) [Compound(1c-5), 3,3-difluoro-3-methylsulfonyl-2-phenyl-1-(1H-1,2,4-triazol-1-yl)propan-2-ol]: 0.5 µg/mL (≈ 1.58 µM) and over 64 µg/mL.
As to `OC(Cn1cncn1)(Cn1cncn1)c1ccc(F)cc1F` [Fluconazole, reference compound], the MIC with C. albicans ATCC 44859 (ATCC44859, 20 hours) is 0.25 µg/mL (≈ 0.816 µM); in the test with A. fumigatus IFM 40808 (IFM40808, growth of about 75% of hyphae inhibited, 24 hours) it was over 64 µg/mL.
As for `CS(=O)(=O)C(F)(F)C(O)(Cn1cncn1)c1ccc(F)cc1` (single isomer, unassigned; (-)) [(-)-Compound(1c-2), (-)-3,3-difluoro-2-(4'-fluorophenyl)-3-methylsulfonyl-1-(1H-1,2,4-triazol-1-yl)propan-2-ol], the values for the Minimum inhibitory concentration with C. albicans ATCC 44859 (20 hours) and with A. fumigatus IFM 40808 (setting [2]) were 62.5 ng/mL (≈ 0.186 µM) and 64 µg/mL (≈ 191 µM), respectively.
Compound `CS(=O)(=O)C(F)(F)C(O)(Cn1cncn1)c1ccc(C(F)(F)F)cc1` (single isomer, unassigned; (+)) [(+)-Compound(1c-4), (+)-3,3-difluoro-3-methylsulfonyl-1-(1H-1,2,4-triazol-1-yl)-2-[4'-(trifluoromethyl)phenyl]propan-2-ol] gave a Minimum inhibitory concentration with C. albicans ATCC 44859 (20 hours) of over 1000 ng/mL. Moreover, the MIC in the test on A. fumigatus IFM 40808 (setting [1]) is over 64 µg/mL.
For `CS(=O)(=O)C(F)(F)C(O)(Cn1cncn1)c1ccc(Cl)cc1Cl` (stereo not drawn) [Compound(1c-3), 2-(2',4'-dichlorophenyl)-3,3-difluoro-3-methylsulfonyl-1-(1H-1,2,4-triazol-1-yl)propan-2-ol], the MIC came out at 0.0313 µg/mL (≈ 0.081 µM) in the test on C. albicans ATCC 44859 (ATCC44859, 20 h) and 32 µg/mL (≈ 82.9 µM) with A. fumigatus IFM 40808 (setting [1]).
For `CS(=O)(=O)C(F)(F)C(O)(Cn1cncn1)c1ccc(Cl)cc1Cl` (single isomer, unassigned; (+)) [(+)-Compound(1c-3), (+)-2-(2',4'-dichlorophenyl)-3,3-difluoro-3-methylsulfonyl-1-(1H-1,2,4-triazol-1-yl)propan-2-ol], the values for the Minimum inhibitory concentration in the test on C. albicans ATCC 44859 (20 hours) and with A. fumigatus IFM 40808 (setting [2]) were over 1000 ng/mL and over 64 µg/mL, respectively.
For `CS(=O)(=O)C(F)(F)C(O)(Cn1cncn1)c1ccc(C(F)(F)F)cc1` (racemic) [Compound(1c-4), 3,3-difluoro-3-methylsulfonyl-1-(1H-1,2,4-triazol-1-yl)-2-[4'-(trifluoromethyl)phenyl]propan-2-ol], the MIC is 0.125 µg/mL (≈ 0.324 µM) in the test with C. albicans ATCC 44859 (ATCC44859, 20 h) and over 64 µg/mL in the test with A. fumigatus IFM 40808 (setting [1]).
As to `C[S+]([O-])C(F)(F)C(O)(Cn1cncn1)c1ccc(F)cc1F` (single isomer, unassigned) [Compound(1b-1B), 3,3-difluoro-2-(2',4'-difluorophenyl)-3-methylsulfinyl-1-(1H-1,2,4-triazol-1-yl)propan-2-ol], the Minimum inhibitory concentration in the test on C. albicans ATCC 44859 (20 hours) is 500 ng/mL (≈ 1.48 µM); with A. fumigatus IFM 40808 (setting [2]), over 64 µg/mL.
The compound `CS(=O)(=O)C(F)(F)C(O)(Cn1cncn1)c1ccc(F)cc1` (single isomer, unassigned; (+)) [(+)-Compound(1c-2), (+)-3,3-difluoro-2-(4'-fluorophenyl)-3-methylsulfonyl-1-(1H-1,2,4-triazol-1-yl)propan-2-ol] had a Minimum inhibitory concentration with C. albicans ATCC 44859 (20 hours) of over 1000 ng/mL. Besides, in the test with A. fumigatus IFM 40808 (setting [1]), the MIC was over 64 µg/mL.
For `C[S+]([O-])C(F)(F)C(O)(Cn1cncn1)c1ccc(F)cc1F` (single isomer, unassigned) [Compound(1b-1A), 3,3-difluoro-2-(2',4'-difluorophenyl)-3-methylsulfinyl-1-(1H-1,2,4-triazol-1-yl)propan-2-ol], in that order: 62.5 ng/mL (≈ 0.185 µM) and 64 µg/mL (≈ 190 µM).
On to `CS(=O)(=O)C(F)(F)C(O)(Cn1cncn1)c1ccc(C(F)(F)F)cc1` (single isomer, unassigned; (-)) [(-)-Compound(1c-4), (-)-3,3-difluoro-3-methylsulfonyl-1-(1H-1,2,4-triazol-1-yl)-2-(4'-(trifluoromethyl)phenyl]propan-2-ol], for which the results for the Minimum inhibitory concentration in the test on C. albicans ATCC 44859 (20 hours) and with A. fumigatus IFM 40808 (setting [2]) were 62.5 ng/mL (≈ 0.162 µM) and over 64 µg/mL, respectively.
Consider `CSC(F)(F)C(O)(Cn1cncn1)c1ccc(F)cc1` (stereo not drawn) [Compound(1a-2), 3,3-difluoro-2-(4'-fluorophenyl)-3-methylthio-1-(1H-1,2,4-triazol-1-yl)propan-2-ol], for which the MIC in the test on C. albicans ATCC 44859 (ATCC44859, 20 h) stood at 0.0625 µg/mL (≈ 0.206 µM); with A. fumigatus IFM 40808 (setting [1]), 16 µg/mL (≈ 52.8 µM).
For `CSC(F)(F)C(O)(Cn1cncn1)c1ccc(Cl)cc1Cl` (racemic) [Compound(1a-3), 2-(2',4'-dichlorophenyl)-3,3-difluoro-3-methylthio-1-(1H-1,2,4-triazol-1-yl)propan-2-ol], in that order: 0.0039 µg/mL (≈ 0.011 µM) and 2 µg/mL (≈ 5.65 µM).
